From BindingDB's records for doi:10.1016/0960-894X(95)00483-A (1995) come the findings set out here.

For the experiment, the target named is Beta-2 adrenergic receptor (Rattus norvegicus) (UniProt P10608). The experiment in a line: Agonistic activity against Beta-2 adrenergic receptor in rat uterus.

Molecules are shown by their SMILES.

Beta-2 adrenergic receptor (Rattus norvegicus), sequence (P10608 whole entry, looked up): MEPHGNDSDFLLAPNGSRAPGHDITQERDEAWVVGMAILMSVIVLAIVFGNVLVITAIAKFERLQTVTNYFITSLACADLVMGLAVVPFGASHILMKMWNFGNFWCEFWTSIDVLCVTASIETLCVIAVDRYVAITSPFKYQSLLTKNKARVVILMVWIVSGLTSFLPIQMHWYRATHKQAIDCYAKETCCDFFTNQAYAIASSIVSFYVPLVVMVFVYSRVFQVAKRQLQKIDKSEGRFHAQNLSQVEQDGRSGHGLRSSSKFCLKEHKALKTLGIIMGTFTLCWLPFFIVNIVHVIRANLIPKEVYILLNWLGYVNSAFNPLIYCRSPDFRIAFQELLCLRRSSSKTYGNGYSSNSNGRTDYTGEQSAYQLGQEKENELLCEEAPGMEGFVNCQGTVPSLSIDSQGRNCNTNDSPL

Regarding `O=C(O)C1(C(=O)O)Oc2cc3c(cc2O1)C[C@@H](NC[C@H](O)c1cccc(Cl)c1)CCC3` [FR-165914], the IC50 is > 10 µM.
